Data reported in publication PMC12112966 (2025).

Key:
Assay in all cases: BLI, immobilised aptamer
[1] = system: JD-1 (DNA, aptamer) GAATGGACCCGGTATAATTCCCTCAAGAGTGCCAATTTCA; settings: 2.7 mM KCl, 1.5 mM KH2PO4, 0.1 M NaCl, 20 mM Na2HPO4, 0.6 mM MgCl2, 0.9 mM CaCl2; selection buffer, pH 7.4; BLI response below 0.1 nm
[2] = system: JD-2 (DNA, aptamer) AAAAGACTTAGTGTTGTCCTATGTATAAGTGCCAATTTCA; settings: 2.7 mM KCl, 1.5 mM KH2PO4, 0.1 M NaCl, 20 mM Na2HPO4, 0.6 mM MgCl2, 0.9 mM CaCl2; selection buffer, pH 7.4; BLI response below 0.1 nm
[3] = system: JD-3 (DNA, aptamer) ACTAGTGCAAATCTATTCCTATGTTACAGTGCCAATTTCA; settings: 2.7 mM KCl, 1.5 mM KH2PO4, 0.1 M NaCl, 20 mM Na2HPO4, 0.6 mM MgCl2, 0.9 mM CaCl2; selection buffer, pH 7.4; BLI response below 0.1 nm
[4] = system: JD2-RM3-27C28T (DNA, aptamer) AAAAGACTTAGTGTTGTCCTATGTATCT; settings: 2.7 mM KCl, 1.5 mM KH2PO4, 0.1 M NaCl, 20 mM Na2HPO4, 0.6 mM MgCl2, 0.9 mM CaCl2; selection buffer, pH 7.4; same concentration as AZA-2
[5] = system: JD3-RMM1 (DNA, aptamer) ACTAGGGCAAATCTATACAGTGCCAATTTCA; settings: 2.7 mM KCl, 1.5 mM KH2PO4, 0.1 M NaCl, 20 mM Na2HPO4, 0.6 mM MgCl2, 0.9 mM CaCl2; selection buffer, pH 7.4; same concentration as AZA-2

Measured: binding

C=C1[C@@H](O)[C@@H]2O[C@]3(CC[C@H](/C=C/[C@@H](C)[C@@H]4CC(C)=C[C@@]5(O[C@H](C[C@@](C)(O)C(=O)O)CC[C@H]5O)O4)O3)CC[C@H]2O[C@@H]1[C@@H](O)C[C@H](C)[C@H]1O[C@@]2(CCCCO2)CC[C@H]1C
no: all assays above
